# Read-outs that look alike come from different tables or passages of the source.
# Assays:
# [1] = humans; cited from earlier work
# [2] = rodents; cited from earlier work
# S.typhimurium TA 1537 = assay: Bacteria reverse mutation assay
# S.typhimurium TA 98 = assay: Bacteria reverse mutation assay
# rats = assay: Escalating phenylephrine infusion during continuous ketamine infusion; type: in vivo, rat; details: phenylephrine 4 to 10 μg/kg/min during steady state shallow ketamine anesthesia; n=3
# [3] = tested on: THP-1, HepG2 and HEK293 cell lines; assay: In vitro cell assays; type: cell-based; details: 0.16 mM to 2.5 mM
smiles,measurement,setting,value
CCOC(=O)c1cncn1[C@H](C)c1ccccc1 [etomidate],plasma concentration at awakening,[1],280 ng/mL
same,plasma concentration at maintenance of sedation,[1],300 to 600 ng/mL
same,plasma concentration at awakening,[2],440 ng/mL
"Nc1ccc2cc3ccccc3cc2c1 [2-AA, 2-Aminoanthracene, reference compound]","number of colonies, positive control","S.typhimurium TA 1535; TA 1535, +S9, 10 μg 2-Aminoanthracene per plate",2-AA 91
same,"number of colonies, positive control","S.typhimurium TA 100; TA 100, +S9, 10 μg 2-Aminoanthracene per plate",2-AA 1307
same,"number of colonies, positive control","S.typhimurium TA 1537; TA 1537, +S9, 10 μg 2-Aminoanthracene per plate",2-AA 141
same,"number of colonies, positive control","S.typhimurium TA 98; TA 98, +S9, 10 μg 2-Aminoanthracene per plate",2-AA 1101
CNC[C@H](O)c1cccc(O)c1 [phenylephrine],effect on EEG power,rats,without effects on EEG power
same,effect on MAP,rats,significant MAP increases
"COc1cccc2c1C(=O)c1c(O)c3c(c(O)c1C2=O)C[C@@](O)(C(C)=O)C[C@@H]3O[C@H]1C[C@H](N)[C@H](O)[C@H](C)O1 [D-myc, Daunomycin, reference compound]","number of colonies, positive control","S.typhimurium TA 98; TA 98, −S9, 6 μg Daunomycin per plate",D-myc 505
CNC1(c2ccccc2Cl)CCCCC1=O (stereo not drawn) [ketamine],plasma concentration at awakening,[1],1000 ng/mL
same,plasma concentration at maintenance of sedation,[1],2000 to 3000 ng/mL
same,plasma concentration at awakening,[2],5000 ng/mL
"COc1ccc2nc3cc(Cl)ccc3c(NCCCNCCCl)c2c1 [191-A, ICR 191 Acridine, reference compound]","number of colonies, positive control","S.typhimurium TA 1537; TA 1537, −S9, 1 μg ICR 191 Acridine per plate",191-A 250
"CC(O)COC[C@H]1O[C@@H]2O[C@H]3[C@H](O)[C@@H](O)[C@@H](O[C@H]4[C@H](O)[C@@H](O)[C@@H](O[C@H]5[C@H](O)[C@@H](O)[C@@H](O[C@H]6[C@H](O)[C@@H](O)[C@@H](O[C@H]7[C@H](O)[C@@H](O)[C@@H](O[C@H]8[C@H](O)[C@@H](O)[C@@H](O[C@H]1[C@H](O)[C@H]2O)O[C@@H]8COCC(C)O)O[C@@H]7COCC(C)O)O[C@@H]6COCC(C)O)O[C@@H]5COCC(C)O)O[C@@H]4COCC(C)O)O[C@@H]3COCC(C)O (stereo partly drawn) [HP-β-CD, hydroxypropyl-β-cyclodextrin]",toxicity in the same cell lines compared with calabadion 2,[3],very comparable
CC[C@H]1OC(=O)[C@H](C)[C@@H](O[C@H]2C[C@@](C)(OC)[C@@H](O)[C@H](C)O2)[C@H](C)[C@@H](O[C@@H]2O[C@H](C)C[C@H](N(C)C)[C@H]2O)[C@](C)(O)C[C@@H](C)C(=O)[C@H](C)[C@@H](O)[C@]1(C)O [erythromycin],toxicity in the same cell lines compared with calabadion 2,[3],very comparable
"[N-]=[N+]=[N-].[Na+] [SA, Sodium Azide, reference compound]","number of colonies, positive control","S.typhimurium TA 1535; TA 1535, −S9, 1.5 μg Sodium Azide per plate",SA 446
same,"number of colonies, positive control","S.typhimurium TA 100; TA 100, −S9, 1.5 μg Sodium Azide per plate",SA 282

# — article PMC4955735 (Anesthesiology, 2016)
